Tests used:
[1] = system: S. pseudintermedius 06-3228; experiment: Bacterial survival in canine blood; assay type: cell-based, Staphylococcus pseudintermedius; details: adenosine 15 μM; 5′-(α, β-methylene) diphosphate 500 μM; ZM241385; 1, 1.5, 2 hours; versus bacteria alone
Procedure: (§1) Overnight cultures of S. pseudintermedius 06-3228 and 08-1661 were diluted 1:100 into fresh TSB and grown for 3 hours at 37° C. Staphylococci were centrifuged 9000×g, washed twice, and diluted in PBS to yield an O.D 600 of 0.5. Then 100 μl of 4×10^6 CFU per ml of bacteria were mixed with 500 μl of fresh canine blood, collected in EDTA. The samples were incubated at 37° C. with 100 rpm shaking and harvested at 60, 90 and 120 minutes. They were incubated on ice for 30 minutes in 1 ml of Red Blood Cell Lysing Buffer Hybri-Max™ (Sigma-Aldrich, Cat NO. R7757), then bacteria were pelleted at 9,000×g at 4° C. and plated on tryptic soy agar (TSA) for enumeration of viable bacteria.

[2] = system: S. pseudintermedius 08-1661; experiment: Bacterial survival in canine blood; assay type: cell-based, Staphylococcus pseudintermedius; details: adenosine 15 μM; 5′-(α, β-methylene) diphosphate 500 μM; ZM241385; 1, 1.5, 2 hours; versus bacteria alone
Procedure: as §1

canine blood PMNs [3] = experiment: Phagocytosis of pHrodo-labeled S. pseudintermedius 06-3228 in dog blood (flow cytometry); assay type: cell-based; details: 37° C., adenosine 15 μM, ADP analogue 500 μM, ZM241385 1 μM
Procedure: (§2) Bacteria for the phagocytosis assay were labeled using a pHrodo™ phagocytosis particle labeling kit (Life technologies, P35369) (10). Briefly, overnight cultures of S. pseudintermedius 06-3228 and 08-1661 were diluted 1:100 into fresh TSB and grown for 3 hours at 37° C. Bacteria were centrifuged, washed twice, and diluted to 20 mg/mL wet weight in 0.1 M sodium bicarbonate, pH 8.5, and pHrodo™ dye was dissolved in DMSO at 10 mM. The bacteria were suspended at a final dye concentration of 0.5 mM. The inhibitory effect of SpAdsA on canine neutrophils was evaluated in blood samples by exposing the EDTA-whole blood samples to pHrodo™ dye-labeled S. pseudintermedius 06-3228 and 08-1661 for 30 and 60 minutes at 37° C. The RBCs were lysed using Red Blood Cell Lysing Buffer Hybri-Max™ (Sigma-Aldrich, Cat NO. R7757) followed by centrifugation and washing. The final cell pellet, containing leukocytes, was suspended in wash buffer and analyzed using a flow cytometer equipped with a 488-nm argon ion laser (Attune acoustic focusing cytometry).

canine blood PMNs [4] = experiment: Phagocytosis of pHrodo-labeled S. pseudintermedius 08-1661 in dog blood (flow cytometry); assay type: cell-based; details: 37° C., adenosine 15 μM, ADP analogue 500 μM, A2A receptor antagonist
Procedure: as §2

canine PMNs [5] = experiment: Binding of biotin labelled wild type and attenuated LukS and LukF to canine PMNs; assay type: cell-based, dog; details: biotin labelled proteins, 30 minutes
Procedure: Purified recombinant S. pseudintermedius wild type and attenuated LukS and LukF at 500 μg/ml in PBS (pH 7.2) were incubated with 50 μl of 10 mM EZ-Link Sulfo-NHS-LC-Biotin reagent (equal to 20-fold molar excess of biotin) (Thermo Scientific, Cat No. 21327) for 30 min at room temperature. Excess biotin was removed using an Amicon Ultra-0.5 Centrifugal Filter Unit with a 30 kDa molecular weight cut-off (Milipore sigma, Cat No. UFC5030). The biotin-labeled proteins were stored at −20° C. until further use.
To test the binding of wild type and attenuated LukS and LukF to canine PMNs, biotin labelled recombinant proteins were incubated with PMNs from a clinical healthy dog for 30 minutes at room temperature, the cells were washed, then PMNs were incubated with 1:500 dilution of avidin-FITC conjugate (Sigma-Aldrich, A2050) at room temperature for 30 minutes in the dark. Unbound conjugate was removed by washing and the amount of binding was determined using a flow cytometer (Attune acoustic focusing cytometer) by gating on PMNs based on their side and forward scatter properties.

[6] = system: chicken anti-protein A antibody; experiment: ELISA antigenicity with HRP-chicken anti-protein A antibody; assay type: binding; details: coated protein
Procedure: For measurement of the antigenicity of recombinant proteins, affinity-purified SpsQ and SpsQ-M were coated on ELISA plates (Corning, USA Cat No. 3590) at […] in PBS (pH 7.2). The plates were washed with PBS-T and incubated with HRP-chicken anti-protein A antibody (Gallus Immunotech, USA Cat No. APA) for 1 h at 37° C., then washed. For this and all subsequent ELISA assays, plates were washed three times with PBS-T between all incubations, bound antibodies were detected using TMB substrate (Thermo Scientific, USA Cat No. N301), reactions were stopped with 0.18 M sulphuric acid and optical density read at 450 nm on a plate reader (Bio TEK, USA Cat No. EL800). The experiment was repeated at least three times and a p-value of <0.05 was considered significant, which was the same for all the experiments unless mentioned otherwise.

dog IgG = experiment: ELISA reactivity with dog serum / dog IgG; assay type: binding; details: compared to SpsQ and SpA
Procedure: (§3) To test the reactivity of serum from a dog with chronic pyoderma, S. aureus SpA and S. pseudintermedius SpsQ and SpsQ-M were coated on ELISA plates (Corning, USA Cat No. 3590) at 2 μg/ml in PBS. They were incubated with serum at a dilution of 1:2000. Bound IgG, IgM, and IgA were detected by HRP-goat anti-dog IgG-heavy and light chain (Bethyl Laboratories, Inc., USA Cat No. A40-123-1), HRP-goat anti-dog IgM μ chain (Bethyl Laboratories, Inc., USA Cat No. A40-116-2), HRP-goat anti-dog IgA (Bethyl Laboratories, Inc., USA Cat No. A40-104P) at a dilution of 1:8000 in PBS-T. Dog whole IgG molecule (Rockland, USA Cat No. 004-0102-1000) was used for comparison to measure non-specific IgG binding.

dog IgM = experiment: ELISA reactivity with dog IgM; assay type: binding; details: compared to SpsQ and SpA
Procedure: as §3

dog IgA = experiment: ELISA reactivity with dog IgA; assay type: binding; details: compared to SpsQ and SpA
Procedure: as §3

canine B cells [7] = experiment: B cell apoptosis (annexin, flow cytometry); assay type: cell-based, dog; details: 1.5 h
Procedure: (§4) A total of 100 μg of purified recombinant SpsQ or SpsQ-M was mixed with isolated peripheral blood mononuclear cells (PBMC) in 1 ml of RPMI medium supplemented with 10% fetal bovine serum and incubated for 1.5 h at 37° C. in a 5% CO2 incubator. To detect early phases of B cell apoptosis, phosphatidylserine was measured on the surface of cells using pacific blue-conjugated annexin (Thermo Scientific, USA Cat No. A35136). B cells were identified using phycoerythrin (PE) conjugated mouse anti-canine CD21 (clone: CA2.1D6) (BIO-RAD, USA Cat No. MCA1781PE) that recognizes canine CD21 (complement receptor type 2) on mature B lymphocytes. Stained B cells were analyzed using a flow cytometer (Attune acoustic focusing cytometer). B cells were also incubated with the same recombinant proteins as described above but for 3.5 h in order to detect B cell death. Cells were stained with Sytox green (Life Technologies, Inc., USA Cat No. 1776406) and PE-conjugated mouse anti-canine CD21. Gates were placed on cells positive for PE and these B cells were analyzed by flow cytometry.
(§5) For flow cytometry analysis the cut-off for apoptosis or cell death was established using leukocytes incubated without SpsQ. Mean fluorescent intensity was determined from all B cells.

canine B cells [8] = experiment: B cell death (Sytox green, flow cytometry); assay type: cell-based, dog; details: 3.5 h incubation; ± SEM
Procedure: as §4, §5

clinically normal dogs = experiment: Antibody response of dogs injected with SpEX-M (ELISA); assay type: in vivo, dog; details: 20 μg subcutaneous, three weekly injections; sera days −7, 8, 15, 29; versus pre-injection sera
Procedure: Recombinant SpEX-M (SEQ ID NO:12) produced in E. coli was purified using affinity chromatography (as above) and endotoxin concentration was measured using a ToxinSensor™ Chromogenic LAL Endotoxin Assay Kit (Genscript, Cat. No. L00350). Recombinant SpEX-M at 20 μg each/0.5 cc in phosphate buffered saline (PBS) (pH 7.2) were injected in the lateral thorax by the subcutaneous route, into three clinically normal dogs. Injections were given once every 7 days for a total of three injections with a control dog receiving PBS (pH 7.2) only. Blood (6 cc) was collected from a jugular vein 4 times, on days −7, 8, 15 and 29 (relative to injections). […]
For measurement of recombinant protein antigenicity, SpEX and SpEX-M were coated separately onto ELISA plates (Corning, Cat No. 3590) at 2 μg/ml in PBS. The plates were washed with 0.05% PBS-T and incubated with two-fold serial diluted serum from dogs (injected with recombinant proteins) for 1 h at 37° C., then bound IgG was detected using HRP-conjugated goat anti-dog IgG-heavy and light chain (Bethyl Laboratories, Inc. Cat No. A40-123-1). ELISA assays plates were washed three times with PBS-T between all incubations, bound antibodies were detected using TMB substrate (Thermo Scientific, Cat No. N301), reactions were stopped with 0.18 M sulphuric acid and optical density read at 450 nm on a plate reader (Bio TEK, EL800). […]

canine PMNs [9] = experiment: PMNs permeability assay (Sytox green); assay type: cell-based, dog; details: 100 μg, 30 min, relative to SpEX
Procedure: (§6) PMNs and PBMCs were separated as previously described. PMNs and PBMCs were incubated with recombinant proteins (SpEX and SpEX-M) at concentration of 100 μg in a volume of 500 μl in RPMI medium supplemented with 10% fetal bovine serum in a 5% CO2 incubator for 30 min. The supernatant of S. pseudintermedius 06-3228 was harvested at log phase to test the toxic effect of secreted SpEX. PMNs and PBMCs were stained with 1 Sytox green (Life Technologies, Inc. Cat No. 1776406) for 30 min, washed twice with PBS (pH 7.2) and analyzed using a flow cytometer (Attune acoustic focusing cytometer) by gating on PMNs and PBMCs based on their side and forward scatter properties.
(§7) To determine the protective effect of canine anti-SpEX-M on PMNs and PBMCs, recombinant S. pseudintermedius SpEX at concentration of 100 μg/ml in PBS (pH 7.2) was incubated for 30 minutes at 37° C. with serum from SpEX-M injected dogs. The experiment was run in duplicate and a p-value of <0.05 was considered significant.
(§8) For flow cytometry analysis the cut-off for cell death was established using leukocytes incubated without SpEX. Mean fluorescent intensity was determined from all gated cells.

canine PBMCs = experiment: PBMCs permeability assay (Sytox green); assay type: cell-based, dog; details: 100 μg, 30 min, relative to SpEX
Procedure: as §6, §7, §8

Compound: Nc1nc(NCCc2ccc(O)cc2)nc2nc(-c3ccco3)nn12 [ZM241385]
- survival of S. pseudintermedius 06-3228 in canine blood [1]: significantly decreased at all of time points
- survival of S. pseudintermedius 08-1661 in canine blood [2]: significantly decreased at all of time points
- phagocytosis, mean MFI (canine blood PMNs [3]; 06-3228, 30 minutes): 241513
- phagocytosis, mean MFI (canine blood PMNs [3]; 06-3228, 60 minutes): no significant difference
- phagocytosis, mean MFI (canine blood PMNs [4]; 08-1661, 30 minutes): 1,306,729
- phagocytosis, mean MFI (canine blood PMNs [4]; 08-1661, 60 minutes): 2,924,203

Compound: LukF-M: attenuated Leukotoxin F with substitutions S59D and N65A
- binding to canine leukocytes (canine PMNs [5]): bound to canine leukocytes without causing any significant killing

Compound: SpsQ-M: attenuated non-toxigenic S. pseudintermedius protein A with Q5K, Q6K, D32A, D33A in each Ig binding domain
- reactivity with chicken anti-protein A (antigenicity) [6]: strong reactivity
- binding to commercial dog IgG (dog IgG): significantly lower binding
- binding to IgM (dog IgM): significantly lower binding
- binding to IgA (dog IgA): significantly lower binding
- apoptotic effect on B cells (canine B cells [7]; 100 μg protein, PBMC): low apoptotic effect
- mean+/−SEM fluorescent intensity (MFI) difference between SpsQ and SpsQ-M (canine B cells [7]): 2052±285.2
- Sytox MFI reduction compared to that of SpsQ (canine B cells [8]): 519065±128292

Compound: Nc1ncnc2c1ncn2[C@@H]1O[C@H](CO)[C@@H](O)[C@H]1O [adenosine]
- survival of S. pseudintermedius 06-3228 in canine blood [1]: significantly promoted
- survival of S. pseudintermedius 08-1661 in canine blood [2]: significantly promoted
- phagocytosis, mean MFI (canine blood PMNs [3]; 06-3228, 30 minutes): 89,583
- phagocytosis, mean MFI (canine blood PMNs [3]; 06-3228, 60 minutes): 711,453
- phagocytosis, mean MFI (canine blood PMNs [4]; 08-1661, 30 minutes): 375,737
- phagocytosis, mean MFI (canine blood PMNs [4]; 08-1661, 60 minutes): 764,921

Compound: SpEX-M: attenuated SpEX with substitutions D 102A, T125P, T206P and R217A
- IgG against S. pseudintermedius SpEX-M and SpEX in sera of injected dogs (clinically normal dogs): reached the highest level on day 29
- killing effect on PMNs (canine PMNs [9]): diminished killing effect
- killing effect on PBMCs of dogs (canine PBMCs): diminished killing effect

Compound: LukS-M: attenuated Leukotoxin S with substitutions T57F, K128A and S239A
- binding to canine leukocytes (canine PMNs [5]): bound to canine leukocytes without causing any significant killing

Reference: patent US12138303B2, “Staphylococcus pseudintermedius virulence factor compositions” (UNIVERSITY OF TENNESSEE RESEARCH FOUNDATION, priority 2017, dated 2024)
